{
  "source": "patent EP2799074A1",
  "about": "“Iron bis-glycinate chelate for use in the oral treatment of anemia in patients with celiac disease” (Laboratori Baldacci S.P.A., priority 2009, dated 2011)",
  "key": {"[1]": {"tested_on": "celiac subjects, with sideropenic anemia", "experiment": "Efficiency comparison between oral iron bis-glycinate chelate (effervescent tablet of example 1) and conventional treatment in celiac patients; haemochromocytometric test", "format": "in vivo, human", "conditions": "for Hb values / Serum iron values / Values of Ferritin: one patient per line; for Serum iron values / Values of Ferritin: after initial therapy (Fe sulphate p.o. and/or sodium ferric gluconate i.v.)", "source_text": "12 celiac subjects, with sideropenic anemia diagnosed according to the hemoglobin (Hb), ferritin and iron (serum iron) values obtained from the haemochromocytometric test were included in this experiment.\nCeliac disease was diagnosed according to the clinical manifestations and histology reports regarding the intestinal mucosa.\nThese patients were then subjected to a therapy using the iron bis-glycinate chelate according to the invention, formulated in the effervescent tablet of example 1.\nThe hemoglobin (Hb), (Table 1), ferritin (Table 2) and serum iron (Table 3) values taken from each treated patient, both after the conventional therapy (oral and/or intravenous) and after the oral administration according to the present invention (effervescent tablet) were considered for the evaluation.\nA therapy cycle corresponds to the treatment for 20 days with two effervescent tablets per day containing about 14 mg of iron ion per tablet and then, an effervescent tablet per day containing 14 mg of iron ion, for further 40 days.\nThe subsequent maintenance corresponds to the treatment for 20 days with two effervescent tablets per day containing about 14 mg of iron ion per tablet, every 3 months for about one year.\nThe hemoglobin, ferritin and serum iron blood values were determined after the first treatment cycle and the treatment was continued with repeated cycles according to the previously indicated methods."}, "[2]": {"conditions": "with respect to mineral salts, such as ferrous sulphate; literature data; cited from earlier work"}, "[3]": {"conditions": "cited from earlier work"}, "[4]": {"tested_on": "celiac patients", "experiment": "Clinical records of celiac patients treated with conventional iron salts p.o. and i.v. (Examples 6-11)", "protocol": "(§1) All patients were initially treated with ferrous sulphate orally (1 tablet of ferrous sulphate, corresponding to 105 mg of iron ion) for 40 days and/or with sodium ferric gluconate by intravenous administration for a variable period of time according to the seriousness of the anemic status.\n(§2) All patients were diagnosed with celiac disease through bioptic sampling and with serological tests. During the conventional therapy, the diet of said patients was controlled and corrected with gluten-free foods."}, "[5]": {"tested_on": "celiac patients", "conditions": "human, in vivo", "protocol": "as §1, §2"}, "[6]": {"conditions": "Patient I, ferrous sulphate oral, Final values, 40 days"}, "[7]": {"conditions": "Patient I, ferrous sulphate oral, Initial values, 40 days"}, "[8]": {"conditions": "Patient II, ferrous sulphate oral, Final values, 8/10 days"}, "[9]": {"conditions": "Patient II, ferrous sulphate oral, Initial values, 8/10 days"}, "[10]": {"conditions": "Patient III, ferrous sulphate oral, Final values, 40 days"}, "[11]": {"conditions": "Patient III, ferrous sulphate oral, Initial values, 40 days"}, "[12]": {"conditions": "Patient V, ferrous sulphate oral, Final values, 40 days"}, "[13]": {"conditions": "Patient V, ferrous sulphate oral, Initial values, 40 days"}, "[14]": {"conditions": "Patient I, iron polymaltosate oral, Final values, 20 days"}, "[15]": {"conditions": "Patient I, iron polymaltosate oral, Initial values, 20 days"}, "[16]": {"conditions": "Patient I, ferric iron i.v., Final values, 20 days"}, "[17]": {"conditions": "Patient I, ferric iron i.v., Initial values, 20 days"}, "[18]": {"conditions": "Patient II, ferric iron i.v., Final values, few days"}, "[19]": {"conditions": "Patient II, ferric iron i.v., Initial values, few days"}, "[20]": {"conditions": "Patient IV, ferric iron i.v., Final values, 20 days"}, "[21]": {"conditions": "Patient IV, ferric iron i.v., Initial values, 20 days"}, "[22]": {"conditions": "Patient VI, iron i.v., Final values, 20 days"}, "[23]": {"conditions": "Patient VI, iron i.v., Initial values, 20 days"}},
  "note": "Several values for one entry are separate records, joined by “and”; a condition that tells them apart may be missing. Equal entries are not always repeated. Where two headings read alike, the source gives them in different places.",
  "data": [
    {"compound": "NCC(=O)[O-].NCC(=O)[O-].[Fe+2]", "note": "[Iron bis-glycinate chelate, iron bis-glycinate chelate]", "values": [
      {"measurement": "hemoglobin, ferritin and serum iron value", "setting": "[1]; after I therapy cycle, celiac patients", "result": "considerably increases"},
      {"measurement": "Hb values", "setting": "[1]; after efferv. tab therapy 1st cycle: two effervescent tablets per day for 20 days, then one per day for 40 days", "result": "12.5 g/100 ml and 12.0 g/100 ml (2×) and 13.1 g/100 ml and 11.7 g/100 ml and 11.8 g/100 ml and 12.8 g/100 ml and 12.3 g/100 ml and 12.7 g/100 ml and 11.9 g/100 ml and 12.1 g/100 ml and 10.0 g/100 ml"},
      {"measurement": "Hb values", "setting": "[1]; after maintenance efferv. tab.: two tablets per day for 20 days every 3 months for about one year", "result": "13.6 g/100 ml and 12.9 g/100 ml (2×) and 14.3 g/100 ml and 13.4 g/100 ml (2×) and 13.2 g/100 ml and 12.3 g/100 ml and 14.0 g/100 ml and 13.1 g/100 ml and 12.7 g/100 ml and 12.1 g/100 ml"},
      {"measurement": "adverse effects", "setting": "[1]; oral treatment of 12 celiac patients with the effervescent tablet of example 1", "result": "did not reveal any adverse effects worth mentioning"},
      {"measurement": "bioavailability", "setting": "[2]", "result": "greater bioavailability"},
      {"measurement": "hydrolysis", "setting": "[3]; different pH values of the gastrointestinal section", "result": "does not undergo hydrolysis"},
      {"measurement": "separation into iron ion", "setting": "[3]; pH interval comprised between 3 and 10", "result": "not separated into iron ion"}
    ]},
    {"compound": "O=S(=O)([O-])[O-].[Fe+2]", "note": "[ferrous sulphate]", "values": [
      {"measurement": "Serum iron values", "setting": "[1]", "result": "34 µg/dL and 16 µg/dL"},
      {"measurement": "Values of Ferritin", "setting": "[1]", "result": "23 ng/mL and <5 ng/mL"},
      {"measurement": "tolerability / adverse events of the treatment", "setting": "[4]; Patient I - Female", "result": "intestinal intolerance"},
      {"measurement": "Ferritin", "setting": "[4]; [6]", "result": 38},
      {"measurement": "Serum iron", "setting": "[4]; [6]", "result": 48},
      {"measurement": "Hb", "setting": "[4]; Patient I, ferrous sulphate oral, Final values, duration 40 days", "result": 11.1},
      {"measurement": "Ferritin", "setting": "[4]; [7]", "result": 32},
      {"measurement": "Serum iron", "setting": "[4]; [7]", "result": 41},
      {"measurement": "Hb", "setting": "[4]; Patient I, ferrous sulphate oral, Initial values, duration 40 days", "result": 10.2},
      {"measurement": "Ferritin", "setting": "[4]; [8]", "result": 45},
      {"measurement": "Hb", "setting": "[4]; [8]", "result": 12.3},
      {"measurement": "Serum iron", "setting": "[4]; [8]", "result": 68},
      {"measurement": "Ferritin", "setting": "[4]; [9]", "result": 41},
      {"measurement": "Hb", "setting": "[4]; [9]", "result": 11.6},
      {"measurement": "Serum iron", "setting": "[4]; [9]", "result": 55},
      {"measurement": "Ferritin", "setting": "[4]; [10]", "result": 27},
      {"measurement": "Hb", "setting": "[4]; [10]", "result": 10},
      {"measurement": "Serum iron", "setting": "[4]; [10]", "result": 38},
      {"measurement": "Ferritin", "setting": "[4]; [11]", "result": 19},
      {"measurement": "Hb", "setting": "[4]; [11]", "result": 9.1},
      {"measurement": "Serum iron", "setting": "[4]; [11]", "result": 32},
      {"measurement": "Hb", "setting": "[4]; Patient V, ferrous sulphate oral, after several therapy cycles, Initial values, 40 days", "result": 8.4},
      {"measurement": "Ferritin", "setting": "[4]; [12]", "result": 21},
      {"measurement": "Hb", "setting": "[4]; [12]", "result": 9.7},
      {"measurement": "Serum iron", "setting": "[4]; [12]", "result": 46},
      {"measurement": "Ferritin", "setting": "[4]; [13]", "result": "<5"},
      {"measurement": "Serum iron", "setting": "[4]; [13]", "result": 22}
    ]},
    {"compound": "iron polymaltosate", "values": [
      {"measurement": "Ferritin", "setting": "[4]; [14]", "result": 25},
      {"measurement": "Hb", "setting": "[4]; [14]", "result": 10.8},
      {"measurement": "Serum iron", "setting": "[4]; [14]", "result": 43},
      {"measurement": "Ferritin", "setting": "[4]; [15]", "result": 29},
      {"measurement": "Hb", "setting": "[4]; [15]", "result": 10.6},
      {"measurement": "Serum iron", "setting": "[4]; [15]", "result": 38},
      {"measurement": "tolerability / adverse events of the treatment", "setting": "[5]", "result": "well tolerated"}
    ]},
    {"compound": "sodium ferric gluconate", "values": [
      {"measurement": "Serum iron values", "setting": "[1]", "result": 30, "unit": "µg/dL"},
      {"measurement": "Values of Ferritin", "setting": "[1]", "result": 22, "unit": "ng/mL"},
      {"measurement": "Ferritin", "setting": "[4]; [16]", "result": 30},
      {"measurement": "Hb", "setting": "[4]; [16]", "result": 9.8},
      {"measurement": "Serum iron", "setting": "[4]; [16]", "result": 48},
      {"measurement": "Ferritin", "setting": "[4]; [17]", "result": "<5"},
      {"measurement": "Serum iron", "setting": "[4]; [17]", "result": 19},
      {"measurement": "Hb", "setting": "[4]; Patient I, ferric iron i.v., Initial values, 20 days, 1 vial/day for 10 days, then 2 vials/day", "result": 7.7},
      {"measurement": "Ferritin", "setting": "[4]; [18]", "result": 33},
      {"measurement": "Serum iron", "setting": "[4]; [18]", "result": 49},
      {"measurement": "Hb", "setting": "[4]; Patient II, ferric iron i.v., Final values, few days, cycle not completed", "result": 10.8},
      {"measurement": "Ferritin", "setting": "[4]; [19]", "result": 31},
      {"measurement": "Serum iron", "setting": "[4]; [19]", "result": 40},
      {"measurement": "Hb", "setting": "[4]; Patient II, ferric iron i.v., Initial values, few days, cycle not completed", "result": 10.4},
      {"measurement": "Ferritin", "setting": "[4]; [20]", "result": 42},
      {"measurement": "Hb", "setting": "[4]; [20]", "result": 10.6},
      {"measurement": "Serum iron", "setting": "[4]; [20]", "result": 54},
      {"measurement": "Ferritin", "setting": "[4]; [21]", "result": 21},
      {"measurement": "Serum iron", "setting": "[4]; [21]", "result": 39},
      {"measurement": "Hb", "setting": "[4]; Patient IV, ferric iron i.v., Initial values, 20 days, 1 vial/day for 10 days, then 2 vials/day", "result": 9.7},
      {"measurement": "values of Hb", "setting": "[4]; Patient IV, iron i.v., cycles every 3/4 months", "result": "around 11 gr/dl"},
      {"measurement": "Ferritin", "setting": "[4]; [22]", "result": 81},
      {"measurement": "Hb", "setting": "[4]; [22]", "result": 12.6},
      {"measurement": "Serum iron", "setting": "[4]; [22]", "result": 68},
      {"measurement": "Ferritin", "setting": "[4]; [23]", "result": 35},
      {"measurement": "Hb", "setting": "[4]; [23]", "result": 10.2},
      {"measurement": "Serum iron", "setting": "[4]; [23]", "result": 41},
      {"measurement": "tolerability / adverse events of the treatment", "setting": "[5]; iv", "result": "skin rush and asthmatic crisis"}
    ]}
  ]
}
